According to ChEMBL document CHEMBL2040800 (J Med Chem, 2012):
In brackets after ≈: the same amount, converted by molar mass. Activity calls are given as the source filed them. The calls are words filed in the database; no cut-off is given here.

What was measured:
Plasmodium berghei [1] = assay: Antimalarial activity against Plasmodium berghei ANKA expressing GFP infected in Sprague-Dawley rat assessed as total cure from parasite at 30 mg/kg, po administered as single dose measured on day 30 post-infection by flow cytometry; type: functional, organism-based; parameters: dose 30 mg/kg
Plasmodium berghei [2] = assay: Antimalarial activity against Plasmodium berghei ANKA expressing GFP infected in Sprague-Dawley rat assessed as reduction in parasitemia at 10 mg/kg, po administered as single dose measured on day 3 post-infection by flow cytometry; type: functional; parameters: scale not given: the % may be the effect or the level left
Plasmodium berghei [3] = assay: Antimalarial activity against Plasmodium berghei ANKA expressing GFP infected in Sprague-Dawley rat assessed as mean survival days of host at 10 mg/kg, po administered as single dose; type: functional
Plasmodium berghei [4] = assay: Antimalarial activity against Plasmodium berghei ANKA expressing GFP infected in Sprague-Dawley rat assessed as reduction in parasitemia at 3 mg/kg, po administered as single dose measured on day 3 post-infection by flow cytometry; type: functional; parameters: scale not given: the % may be the effect or the level left
Plasmodium berghei [5] = assay: Antimalarial activity against Plasmodium berghei ANKA expressing GFP infected in Sprague-Dawley rat assessed as mean survival days of host at 3 mg/kg, po administered as single dose; type: functional
[6] = Apparent terminal half life in Sprague-Dawley rat at 3.2 mg/kg, iv; type: ADME, organism-based; parameters: dose 3.2 mg/kg, route intravenous; conditions: in vivo, read-out: betat1/2(app) (converted)
[7] = Apparent terminal half life in Sprague-Dawley rat at 20.2 mg/kg, po; type: ADME, organism-based; parameters: dose 20.2 mg/kg, route oral; conditions: in vivo, read-out: betat1/2(app) (converted)
[8] = Total plasma clearance in Sprague-Dawley rat at 3.2 mg/kg, iv; type: ADME, organism-based; parameters: dose 3.2 mg/kg, route intravenous
[9] = Volume of distribution at steady state in Sprague-Dawley rat at 3.2 mg/kg, iv; type: ADME, organism-based; parameters: dose 3.2 mg/kg, route intravenous; conditions: plasma, read-out: Vdss
[10] = Cmax in Sprague-Dawley rat at 20.2 mg/kg, po; type: ADME, organism-based; parameters: dose 20.2 mg/kg, route oral; conditions: in vivo
[11] = Tmax in Sprague-Dawley rat at 20.2 mg/kg, po; type: ADME, organism-based; parameters: dose 20.2 mg/kg, route oral; conditions: in vivo
[12] = AUC (0 to infinity) in Sprague-Dawley rat at 3.2 mg/kg, iv; type: ADME, organism-based; parameters: time infinity, dose 3.2 mg/kg, route intravenous; conditions: plasma
[13] = AUC (0 to infinity) in Sprague-Dawley rat at 20.2 mg/kg, po; type: ADME, organism-based; parameters: time infinity, dose 20.2 mg/kg, route oral; conditions: plasma
[14] = Oral bioavailability in Sprague-Dawley rat at 20.2 mg/kg; type: ADME, organism-based; conditions: in vivo
Plasmodium berghei [15] = assay: Antimalarial activity against Plasmodium berghei ANKA expressing GFP infected in po dosed Sprague-Dawley rat assessed as reduction in parasitemia administered as single dose measured on day 3 post-infection by flow cytometry; type: functional; conditions: 72 h
Cytochrome P450 1A2 = target: T1, Cytochrome P450 1A2 (Homo sapiens, UniProt P05177); assay: Inhibition of CYP1A2-mediated phenacetin O-deethylation in human liver microsomes; type: ADME, Microsome
T1 sequence (P05177 whole entry): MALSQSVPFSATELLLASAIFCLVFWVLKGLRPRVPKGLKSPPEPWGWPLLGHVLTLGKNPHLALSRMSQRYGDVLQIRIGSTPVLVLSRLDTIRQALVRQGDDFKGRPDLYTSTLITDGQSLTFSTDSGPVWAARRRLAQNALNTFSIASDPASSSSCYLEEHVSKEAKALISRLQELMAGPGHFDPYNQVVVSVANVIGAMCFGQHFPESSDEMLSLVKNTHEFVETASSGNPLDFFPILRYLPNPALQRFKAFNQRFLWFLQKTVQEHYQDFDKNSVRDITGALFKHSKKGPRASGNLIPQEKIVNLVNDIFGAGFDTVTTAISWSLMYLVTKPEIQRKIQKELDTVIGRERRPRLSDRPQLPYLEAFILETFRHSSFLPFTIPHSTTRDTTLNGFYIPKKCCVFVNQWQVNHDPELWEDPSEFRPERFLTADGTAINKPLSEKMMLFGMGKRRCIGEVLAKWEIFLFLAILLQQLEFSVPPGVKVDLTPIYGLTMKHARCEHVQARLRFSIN

Cytochrome P450 2C9 = Cytochrome P450 2C9 (Homo sapiens, UniProt P11712); assay: Inhibition of CYP2C9-mediated tolbutamide methylhydroxylation in human liver microsomes; type: ADME, Microsome
Cytochrome P450 2C19 = Cytochrome P450 2C19 (Homo sapiens, UniProt P33261); assay: Inhibition of CYP2C19-mediated (S)-mephenytoin 4'-hydroxylation in human liver microsomes; type: ADME, Microsome
Cytochrome P450 2D6 = Cytochrome P450 2D6 (Homo sapiens, UniProt P10635); assay: Inhibition of CYP2D6-mediated dextromethorphan O-demethylation in human liver microsomes; type: ADME, Microsome
Cytochrome P450 3A4/3A5 = Cytochrome P450 3A4/3A5 (Homo sapiens, UniProt P08684+P20815); assay: Inhibition of CYP3A4/CYP3A5-mediated testosterone 6beta-hydroxylation in human liver microsomes; type: ADME, Microsome
L6 = assay: Cytotoxicity against rat L6 cells after 72 hrs by alamar blue assay; type: cell-based; conditions: l6, 72 h
Salmonella typhimurium = assay: Genotoxicity in Salmonella typhimurium by Ames test; type: toxicity, organism-based; conditions: salmonella enterica subsp. enterica serovar typhimurium
[16] = Toxicity in rabbit ventricular wedge assessed as change in QT at 2 uM; type: tissue-based, Oryctolagus cuniculus, Cardiac ventricle
[17] = Toxicity in rabbit ventricular wedge assessed as change in TP-e at 2 uM; type: tissue-based, Oryctolagus cuniculus, Cardiac ventricle
[18] = Toxicity in rabbit ventricular wedge assessed as change in […] at 2 uM; type: tissue-based, Oryctolagus cuniculus, Cardiac ventricle
[19] = Solubility of the compound at 10 uM; type: physicochemical
Plasmodium berghei [20] = assay: Antimalarial activity against Plasmodium berghei ANKA expressing GFP infected in Sprague-Dawley rat assessed as reduction in parasitemia at 50 mg/kg, po administered as 4 doses measured on day 4 post-infection by flow cytometry; type: functional; parameters: scale not given: the % may be the effect or the level left
Plasmodium falciparum = assay: Antimalarial activity against chloroquine-resistant Plasmodium falciparum K1 after 24 hrs by hypoxanthine incorporation assay; type: functional, organism-based; conditions: K1, 24 h
[21] = Partition coefficient, log D of the compound at pH 7.4 by phase gradient HPLC analysis; type: physicochemical; conditions: octanol/water
[22] = Kinetic solubility of the compound in phosphate buffer after 30 mins by nephelometry at pH 6.5; type: physicochemical; conditions: read-out: Kinetic_solubility
[23] = Plasma protein binding in human by reverse phase gradient HPLC analysis; type: ADME, cell-free; conditions: read-out: PPB (converted)
[24] = Half life in human liver microsomes at 1 uM; type: ADME, Microsome
[25] = Intrinsic clearance in human liver microsomes at 1 uM up to 60 mins; type: ADME, Microsome; conditions: read-out: CLH
Plasmodium berghei [26] = assay: Antimalarial activity against Plasmodium berghei ANKA expressing GFP infected in Sprague-Dawley rat assessed as mean survival days of host at 50 mg/kg, po administered as 4 doses; type: functional
Plasmodium berghei [27] = assay: Antimalarial activity against Plasmodium berghei ANKA expressing GFP infected in Sprague-Dawley rat assessed as total cure from parasite at 50 mg/kg, po administered as 4 doses measured on day 30 post-infection by flow cytometry; type: functional, organism-based; parameters: dose 50 mg/kg
Plasmodium berghei [28] = assay: Antimalarial activity against Plasmodium berghei ANKA expressing GFP infected in Sprague-Dawley rat assessed as reduction in parasitemia at 100 mg/kg, po administered as single dose measured on day 3 post-infection by flow cytometry; type: functional; parameters: scale not given: the % may be the effect or the level left
Plasmodium berghei [29] = assay: Antimalarial activity against Plasmodium berghei ANKA expressing GFP infected in Sprague-Dawley rat assessed as mean survival days of host at 100 mg/kg, po administered as single dose; type: functional
Plasmodium berghei [30] = assay: Antimalarial activity against Plasmodium berghei ANKA expressing GFP infected in Sprague-Dawley rat assessed as total cure from parasite at 100 mg/kg, po administered as single dose measured on day 30 post-infection by flow cytometry; type: functional, organism-based; parameters: dose 100 mg/kg
Plasmodium berghei [31] = assay: Antimalarial activity against Plasmodium berghei ANKA expressing GFP infected in Sprague-Dawley rat assessed as reduction in parasitemia at 30 mg/kg, po administered as single dose measured on day 3 post-infection by flow cytometry; type: functional; parameters: scale not given: the % may be the effect or the level left
Plasmodium berghei [32] = assay: Antimalarial activity against Plasmodium berghei ANKA expressing GFP infected in Sprague-Dawley rat assessed as mean survival days of host at 30 mg/kg, po administered as single dose; type: functional

Cytochrome P450 2C19, sequence (P33261 whole entry): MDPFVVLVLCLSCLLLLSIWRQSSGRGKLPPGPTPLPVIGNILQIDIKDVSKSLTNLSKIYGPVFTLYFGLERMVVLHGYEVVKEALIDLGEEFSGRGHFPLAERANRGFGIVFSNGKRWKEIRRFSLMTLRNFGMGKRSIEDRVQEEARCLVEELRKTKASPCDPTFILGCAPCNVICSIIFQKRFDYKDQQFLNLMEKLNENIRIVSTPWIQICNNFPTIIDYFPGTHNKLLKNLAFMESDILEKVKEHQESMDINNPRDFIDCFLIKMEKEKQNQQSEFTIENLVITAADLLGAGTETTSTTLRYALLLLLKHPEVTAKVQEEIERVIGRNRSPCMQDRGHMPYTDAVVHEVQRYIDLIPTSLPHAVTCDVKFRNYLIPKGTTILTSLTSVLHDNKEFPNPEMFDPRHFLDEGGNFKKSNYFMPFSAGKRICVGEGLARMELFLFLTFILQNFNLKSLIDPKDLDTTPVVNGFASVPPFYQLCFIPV
Cytochrome P450 2D6, sequence (P10635 whole entry): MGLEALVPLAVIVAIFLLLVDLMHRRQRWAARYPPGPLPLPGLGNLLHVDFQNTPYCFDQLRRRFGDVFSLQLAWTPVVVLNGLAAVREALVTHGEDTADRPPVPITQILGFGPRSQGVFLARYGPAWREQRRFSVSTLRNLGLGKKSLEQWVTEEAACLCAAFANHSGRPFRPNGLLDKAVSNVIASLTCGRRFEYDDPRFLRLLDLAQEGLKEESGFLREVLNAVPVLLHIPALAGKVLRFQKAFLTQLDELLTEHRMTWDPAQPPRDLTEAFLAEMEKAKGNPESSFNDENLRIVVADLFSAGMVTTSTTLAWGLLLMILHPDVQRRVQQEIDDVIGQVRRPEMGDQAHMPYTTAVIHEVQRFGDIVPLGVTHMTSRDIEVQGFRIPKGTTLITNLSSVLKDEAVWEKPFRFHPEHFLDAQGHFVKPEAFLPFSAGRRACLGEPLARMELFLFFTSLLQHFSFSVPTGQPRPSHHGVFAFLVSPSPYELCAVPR
Cytochrome P450 2C9, sequence (P11712 whole entry): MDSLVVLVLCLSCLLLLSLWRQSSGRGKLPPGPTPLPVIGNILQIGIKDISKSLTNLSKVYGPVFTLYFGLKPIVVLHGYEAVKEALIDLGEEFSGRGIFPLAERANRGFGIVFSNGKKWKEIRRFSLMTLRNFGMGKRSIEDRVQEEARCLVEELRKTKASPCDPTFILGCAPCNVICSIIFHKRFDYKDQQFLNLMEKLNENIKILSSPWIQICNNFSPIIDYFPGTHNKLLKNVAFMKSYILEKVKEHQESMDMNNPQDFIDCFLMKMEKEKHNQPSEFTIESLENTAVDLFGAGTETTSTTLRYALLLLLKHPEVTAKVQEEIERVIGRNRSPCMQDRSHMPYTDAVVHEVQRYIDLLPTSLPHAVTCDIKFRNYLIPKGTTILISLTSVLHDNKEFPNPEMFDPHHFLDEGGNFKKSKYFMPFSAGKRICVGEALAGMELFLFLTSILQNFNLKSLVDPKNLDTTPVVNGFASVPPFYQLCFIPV

For `CS(=O)(=O)c1ccc(-c2cnc(N)c(-c3ccc(C(F)(F)F)nc3)c2)cc1` [MMV-048], the Activity (Plasmodium berghei [1]) was “Active”, the Activity (Plasmodium berghei [2]) was 98% and the MSD (Plasmodium berghei [3]) was 13 days. The Activity (Plasmodium berghei [4]) was 98%, the MSD (Plasmodium berghei [5]) was 8 days and the half-life [6] was 7.3 h. The half-life [7] was 8.5 h, the clearance [8] was 6.5 mL/min/kg and the Vd [9] was 2.7 L/kg. For the same molecule, the Cmax [10] was 8 µM, the Tmax [11] was 2.5 h and the AUC(0-inf) [12] was 23.4 µM·h. It also gave an AUC(0-inf) [13] of 74.2 µM·h, a bioavailability [14] of 51% and an ED50 (Plasmodium berghei [15]) of 0.83 mg/kg. For the same molecule, the ED90 (Plasmodium berghei [15]) was 1.7 mg/kg, the INH (Cytochrome P450 1A2) was over 20 µM and the INH (Cytochrome P450 2C9) was over 20 µM. It also gave an INH (Cytochrome P450 2C19) of over 20 µM, an INH (Cytochrome P450 2D6) of over 20 µM and an INH (Cytochrome P450 3A4/3A5) of over 20 µM. For the same molecule, the Activity (L6) was 251.4 µM, the Activity (Salmonella typhimurium) was “Non-toxic” and the Activity [16] was “Non-toxic”. The Activity [17] was “Non-toxic”, the Activity [18] was “Non-toxic” and the solubility [19] was “Insoluble”. For the same molecule, the Activity (Plasmodium berghei [20]) was 99.7%, the IC50 (Plasmodium falciparum) was 25 nM and the chromatographic logD [21] was 2.6. It also gave a solubility kinetic at 0.5 h [22] of 6.3 µg/mL (≈ 16 µM), a fraction unbound [23] of 0.139 and a half-life at 1 µM [24] of over 8.33 h. For the same molecule, the microsomal CLint at 1 µM [25] was under 1.4 µL/min/mg, the MSD (Plasmodium berghei [26]) was over 30 days and the Activity (Plasmodium berghei [27]) was “Active”. For the same molecule, the Activity (Plasmodium berghei [28]) was 99.5%, the MSD (Plasmodium berghei [29]) was over 30 days and the Activity (Plasmodium berghei [30]) was “Active”. It also gave an Activity (Plasmodium berghei [31]) of 99.3% and an MSD (Plasmodium berghei [32]) of over 30 days.
